Patent publication US20240300942A1, “SMALL MOLECULES FOR TREATEMENT OF CANCER” (VRise Therapeutics Inc., priority 2021, published 2024)

Assays:
NCI-H358 cell line = assay: In vitro cell proliferation assay (CCK-8) in NCI-H358 cell line; assay type: cell-based; details: Homo sapiens, 72 hours; for inhibition at 3 µM: TC1: Test Concentration of 3 uM; for inhibition at 10 µM: TC2: Test Concentration of 10 uM
Method: (§1) Growth inhibition assays is to be carried out using 10% FBS supplemented media. Cells are to be seeded at a desired concentration of 1,500-6,000 cells/well in a 96-well plate. Test compounds at a concentration range from 1 to 30 uM will be added after 24 hours. Growth will be assessed using the CCK-8 kit for measuring reduction at 0 h (prior to the addition of the test compound) and 72 hours after the addition of test compound. Absorbance read on a BIO-RAD iMark Microplate or any equivalent microplate reader at a wavelength of 450 nm. Data was analysed and percent inhibition due to the test compound compared to the control is calculated accordingly.

MIAPACA-2 cell line = assay: In vitro cell proliferation assay (CCK-8) in MIAPACA-2 cell line; assay type: cell-based; details: Homo sapiens, MIA PaCa-2, 72 hours; for inhibition at 3 µM: TC1: Test Concentration of 3 uM; for inhibition at 10 µM: TC2: Test Concentration of 10 uM
Method: as §1

Row | SMILES | inhibition at 3 µM (NCI-H358 cell line) [%] | inhibition at 10 µM (NCI-H358 cell line) [%] | inhibition at 3 µM (MIAPACA-2 cell line) [%] | inhibition at 10 µM (MIAPACA-2 cell line) [%]
1 | C=CC(=O)N1CCN(c2nc(OC[C@@H]3CCCN3C)c(C#N)c3c2CCN(c2cccc4cccc(Cl)c24)C3)CC1CC#N (mixture of isomers) [Ex 23, 1-(4-acryloyl-3-(cyanomethyl)piperazin-1-yl)-6-(8-chloronaphthalen-1-yl)-3-(((S)-1-methylpyrrolidin-2-yl)methoxy)-5,6,7,8-tetrahydro-2,6-naphthyridine-4-carbonitrile] | 75 to 100 | 75 to 100 | 75 to 100 | 75 to 100
2 | C=CC(=O)N1CCN(c2nc(OC[C@@H]3CCCN3C)c(C#N)c3c2CCN(c2cccc4cccc(Cl)c24)C3)CC1CC#N (single isomer, unassigned) [Ex 24] | 75 to 100 | 75 to 100 | 75 to 100 | 75 to 100
3 | C=C(F)C(=O)N1CCN(c2nc(OC[C@@H]3CCCN3C)c(C#N)c3c2CCN(c2cccc4cccc(Cl)c24)C3)C[C@H]1CC#N [Ex 28, 6-(8-chloronaphthalen-1-yl)-1-((R)-3-(cyanomethyl)-4-(2-fluoroacryloyl)piperazin-1-yl)-3-(((S)-1-methylpyrrolidin-2-yl)methoxy)-5,6,7,8-tetrahydro-2,6-naphthyridine-4-carbonitrile] | 50 to 75 | 75 to 100 | 75 to 100 | 75 to 100
4 | C=CC(=O)N1CCN(c2nc(N3CCCCC3)c(C#N)c3c2CCN(Cc2ccccc2)C3)CC1 [Ex 42, 1-(4-acryloylpiperazin-1-yl)-6-benzyl-3-(piperidin-1-yl)-5,6,7,8-tetrahydro-2,6-naphthyridine-4-carbonitrile] |  | 25 to 50 |  | 
5 | C=CC(=O)N1CCN(c2nc(-c3ccnc(F)c3)c(C#N)c3c2CCN(Cc2ccccc2)C3)CC1 [Ex 43, 1-(4-acryloylpiperazin-1-yl)-6-benzyl-3-(2-fluoropyridin-4-yl)-5,6,7,8-tetrahydro-2,6-naphthyridine-4-carbonitrile] |  | 25 to 50 |  | 
6 | C=CC(=O)N1CCN(c2nc(N3CCCCC3)c(C#N)c3c2CCN(c2cccc4ccccc24)C3)CC1 [Ex 44, 1-(4-acryloylpiperazin-1-yl)-6-(naphthalen-1-yl)-3-(piperidin-1-yl)-5,6,7,8-tetrahydro-2,6-naphthyridine-4-carbonitrile] |  | ≤ 25 |  | 
7 | C=CC(=O)N1CCN(c2nc(OCC3CCCN3C)c(C#N)c3c2CCN(Cc2ccccc2)C3)CC1 (centres unmarked) [Ex 45, 1-(4-acryloylpiperazin-1-yl)-6-benzyl-3-((1-methylpyrrolidin-2-yl)methoxy)-5,6,7,8-tetrahydro-2,6-naphthyridine-4-carbonitrile] |  | ≤ 25 |  | 
8 | C=CC(=O)N1CCN(c2nc(N3CCN(C(=O)C=C)CC3)c3c(c2C#N)CN(c2cccc4ccccc24)CC3)CC1 [Ex 46, 1,3-bis(4-acryloylpiperazin-1-yl)-6-(naphthalen-1-yl)-5,6,7,8-tetrahydro-2,6-naphthyridine-4-carbonitrile] |  | 75 to 100 |  | 
9 | C=CC(=O)N1CCN(c2nc(N3CCN(C(=O)C=C)CC3)c3c(c2C#N)CN(c2cccc4sccc24)CC3)CC1 [Ex 47, 1,3-bis(4-acryloylpiperazin-1-yl)-6-(benzo[b]thiophen-4-yl)-5,6,7,8-tetrahydro-2,6-naphthyridine-4-carbonitrile] |  | 75 to 100 |  | 
10 | C=CC(=O)N1CCN(c2nc(N3CCN(C(=O)CC)CC3)c(C#N)c3c2CCN(c2cccc4ccccc24)C3)CC1 [Ex 48, 1-(4-acryloylpiperazin-1-yl)-6-(naphthalen-1-yl)-3-(4-propionylpiperazin-1-yl)-5,6,7,8-tetrahydro-2,6-naphthyridine-4-carbonitrile] |  | 75 to 100 |  | 
11 | C=CC(=O)N1CCN(c2nc(N3CCN(C(=O)CC)CC3)c3c(c2C#N)CN(c2cccc4ccccc24)CC3)CC1 [Ex 49, 3-(4-acryloylpiperazin-1-yl)-6-(naphthalen-1-yl)-1-(4-propionylpiperazin-1-yl)-5,6,7,8-tetrahydro-2,6-naphthyridine-4-carbonitrile] |  | 75 to 100 |  | 
12 | C=CC(=O)N1CCN(c2nc(N3CCOCC3)c(C#N)c3c2CCN(c2cccc4ccccc24)C3)CC1 [Ex 50, 1-(4-acryloylpiperazin-1-yl)-3-morpholino-6-(naphthalen-1-yl)-5,6,7,8-tetrahydro-2,6-naphthyridine-4-carbonitrile] |  | 75 to 100 |  | 
13 | C=CC(=O)N1CCN(c2nc(N3CCN(C(C)=O)CC3)c(C#N)c3c2CCN(c2cccc4ccccc24)C3)CC1 [Ex 51, 3-(4-acetylpiperazin-1-yl)-1-(4-acryloylpiperazin-1-yl)-6-(naphthalen-1-yl)-5,6,7,8-tetrahydro-2,6-naphthyridine-4-carbonitrile] |  | 50 to 75 |  | 
14 | C=CC(=O)N1CCN(c2nc(N3CC(C)OC(C)C3)c(C#N)c3c2CCN(c2cccc4ccccc24)C3)CC1 (centres unmarked) [Ex 52, 1-(4-acryloylpiperazin-1-yl)-3-(2,6-dimethylmorpholino)-6-(naphthalen-1-yl)-5,6,7,8-tetrahydro-2,6-naphthyridine-4-carbonitrile] |  | 75 to 100 |  | 75 to 100
15 | C=CC(=O)N1CCN(c2nc(N3CCN(S(C)(=O)=O)CC3)c(C#N)c3c2CCN(c2cccc4ccccc24)C3)CC1 [Ex 53, 1-(4-acryloylpiperazin-1-yl)-3-(4-(methylsulfonyl)piperazin-1-yl)-6-(naphthalen-1-yl)-5,6,7,8-tetrahydro-2,6-naphthyridine-4-carbonitrile] |  | 75 to 100 |  | 75 to 100
16 | C=CC(=O)N1CCN(c2nc(N3CCN(CC)CC3)c(C#N)c3c2CCN(c2cccc4ccccc24)C3)CC1 [Ex 54, 1-(4-acryloylpiperazin-1-yl)-3-(4-ethylpiperazin-1-yl)-6-(naphthalen-1-yl)-5,6,7,8-tetrahydro-2,6-naphthyridine-4-carbonitrile] |  | 75 to 100 |  | 75 to 100
17 | C=CC(=O)N1CCN(c2nc(OC[C@@H]3CCCN3C)c(C#N)c3c2CCN(c2cccc4ccccc24)C3)CC1 [Ex 55, (S)-1-(4-acryloylpiperazin-1-yl)-3-((1-methylpyrrolidin-2-yl)methoxy)-6-(naphthalen-1-yl)-5,6,7,8-tetrahydro-2,6-naphthyridine-4-carbonitrile] |  | 75 to 100 |  | 75 to 100
18 | C=CC(=O)N1CCN(c2ncc(C#N)c3c2CCN(c2cccc4ccccc24)C3)CC1 [Ex 56, 1-(4-acryloylpiperazin-1-yl)-6-(naphthalen-1-yl)-5,6,7,8-tetrahydro-2,6-naphthyridine-4-carbonitrile] |  | ≤ 25 |  | 
19 | C=C(F)C(=O)N1CCN(c2nc(N3CCN(C(=O)CC)CC3)c(C#N)c3c2CCN(c2cccc4ccccc24)C3)CC1 [Ex 57, 1-(4-(2-fluoroacryloyl)piperazin-1-yl)-6-(naphthalen-1-yl)-3-(4-propionylpiperazin-1-yl)-5,6,7,8-tetrahydro-2,6-naphthyridine-4-carbonitrile] |  | 75 to 100 |  | 
